The first experiment deals with HCV genotype 1a replicon. The experiment is described as follows: HCV genotype 1a replicon assay (NS3 protease activity readout). The format is cell-based, hepatitis C virus. Conditions: HCV genotype 1a replicon. Summed up: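 Genotype 1a subgenomic replicon cells (APC89, Huh7.5) were treated with compound dose-responses in G418-free medium, 0.5% DMSO final, for 48 or 72 hours at 37° C. Lysate NS3/4a protease activity measured with 15 μM FRET substrate, 20 min at 37° C (ex 340/em 509 nm); EC50 by 4-parameter fit.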
(In general: A replicon is a self-replicating genome or part of one, used to study replication in cells.)
As for `COC(=O)NC(C(=O)N1CC(OC)CC1c1nc(-c2ccc(-c3cc(F)c(NC(=O)c4ccc(N5CCN(C(=O)C(C)(C)CO)CC5C)nc4)cc3OC(F)(F)F)cc2)c[nH]1)C(C)O` (stereo not drawn) [Example 16-12], the “Genotype 1a” value is “C (C represents pEC50 between and 9 and about 10, (EC50 between 1 nM and 0.1 nM))”.

As for `COC(=O)N[C@H](C(=O)N1C[C@@H](C)C[C@H]1c1nc(-c2ccc(-c3ccc(C(=O)Nc4ccc(N5CCN(C(=O)C6CC6)C[C@H]5C)nc4)cc3OC(F)(F)F)cc2)c[nH]1)C(C)C` [Example 4-35], the “Genotype 1a” value was “C (C represents pEC50 between and 9 and about 10, (EC50 between 1 nM and 0.1 nM))”.

Regarding `COC(=O)N[C@H](C(=O)N1C[C@@H](C)C[C@H]1c1nc(-c2ccc(-c3cc(Cl)c(NC(=O)c4ccc(N5CCN(C(=O)[C@@H]6CCN6C(C)C)C[C@H]5C)nc4)cc3OC(F)(F)F)cc2)c[nH]1)C(C)C` [Example 1-85], the “Genotype 1a” value was “B (B represents pEC50 between 8 and 9 (EC50 between 1 and 10 nM))”.

As for `COC(=O)N[C@H](C(=O)N1C[C@@H](C)C[C@H]1c1nc(-c2ccc(-c3cc(Cl)c(NC(=O)c4ccc(N5CCN(C(=O)C(C)(C)CO)C(CO)C5)nc4)cc3OC(F)(F)F)cc2)c[nH]1)C(C)C` (stereo partly drawn) [Example 14-3], the “Genotype 1a” value is “C (C represents pEC50 between and 9 and about 10, (EC50 between 1 nM and 0.1 nM))”.

With `CCC(=O)N1CCN(c2ccc(C(=O)Nc3cc(OC(F)(F)F)c(-c4ccc(-c5c[nH]c([C@@H]6C[C@H](C)CN6C(=O)[C@@H](NC(=O)OC)C(C)C)n5)cc4)cc3Cl)cn2)[C@H](C)C1` [Example 1-73], the “Genotype 1a” value is recorded as “D (D represents pEC50>10 (EC50<0.1 nM))”.

`COC(=O)N[C@H](C(=O)N1C[C@@H](C)C[C@H]1c1nc(-c2ccc(-c3ccc(C(=O)Nc4ccc(N5C[C@H](C)N(C(=O)C6CC6C)C[C@H]5C)nc4)cc3OC(F)(F)F)cc2)c(Cl)[nH]1)C(C)C` (stereo partly drawn) [Example 4-13]: the “Genotype 1a” value was “C (C represents pEC50 between and 9 and about 10, (EC50 between 1 nM and 0.1 nM))”.

With `COC(=O)NC(C(=O)N1CC(F)CC1c1nc(-c2ccc(-c3cc(Cl)c(NC(=O)c4ccc(N5CCN(C(=O)C(C)(C)C)CC5C)nc4)cc3OC(F)(F)F)cc2)c[nH]1)C(C)C` (stereo not drawn) [Example 29-2], the “Genotype 1a” value was “C (C represents pEC50 between and 9 and about 10, (EC50 between 1 nM and 0.1 nM))”.

Regarding `COC(=O)NC(C(=O)N1C(C)CCC1c1nc(-c2ccc(-c3ccc(C(=O)Nc4ccc(N5CCN(C(=O)C6CC6(C)C)CC5C)nc4)cc3OC(F)(F)F)cc2)c[nH]1)C(C)C` (stereo not drawn) [Example 18-3], the “Genotype 1a” value was “C (C represents pEC50 between and 9 and about 10, (EC50 between 1 nM and 0.1 nM))”.

As to `COC(=O)N[C@H](C(=O)N1C[C@@H](C)C[C@H]1c1nc(-c2ccc(-c3ccc(C(=O)Nc4ccc(N5CCN(C(=O)[C@H]6CC6(C)C)C[C@H]5C)nc4)cc3OC(F)(F)F)cc2)c(Cl)[nH]1)C(C)C` [Example 4-29], the “Genotype 1a” value is recorded as “D (D represents pEC50>10 (EC50<0.1 nM))”.

Turning to `COC(=O)N[C@H](C(=O)N1C[C@@H](C)C[C@H]1c1nc(-c2ccc(-c3ccc(C(=O)Nc4ccc(N5C[C@H](C)N(C(=O)[C@@]6(O)CC6(C)C)C[C@H]5C)nc4)cc3OC(F)(F)F)cc2)c[nH]1)C(C)C` [Example 4-38], the “Genotype 1a” value is “C (C represents pEC50 between and 9 and about 10, (EC50 between 1 nM and 0.1 nM))”.

As to `COC(=O)N[C@H](C(=O)N1C[C@@H](C)C[C@H]1c1nc(-c2ccc(-c3cc(Cl)c(NC(=O)c4ccc(N5CCN(C(=O)C(O)C(F)(F)F)C[C@H]5C)nc4)cc3OC(F)(F)F)cc2)c[nH]1)C(C)C` (stereo partly drawn) [Example 1-97], the “Genotype 1a” value is “C (C represents pEC50 between and 9 and about 10, (EC50 between 1 nM and 0.1 nM))”.

As to `COC(=O)NC(C(=O)N1CC(C)CC1c1nc(-c2ccc(-c3ccc(NC(=O)c4ccc(N5CCN(C(=O)C(C)(C)C)CC5C)nc4)cc3OC(F)(F)F)cc2)c[nH]1)C(C)(C)O` (stereo not drawn) [Example 13-15], the “Genotype 1a” value is “D (D represents pEC50>10 (EC50<0.1 nM))”.

Take `COC(=O)N[C@H](C(=O)N1C[C@@H](C)C[C@H]1c1nc(-c2ccc(-c3cc(F)c(NC(=O)c4ccc(N5CCN(C(=O)c6c[nH]cn6)C[C@H]5C)nc4)cc3OC(F)(F)F)cc2)c[nH]1)C(C)C` [Example 1-25]: the “Genotype 1a” value is listed as “D (D represents pEC50>10 (EC50<0.1 nM))”.

As for `COC(=O)N[C@H](C(=O)N1C[C@@H](OC)C[C@H]1c1nc(-c2ccc(-c3cc(F)c(NC(=O)c4ccc(N5CCN(C(=O)[C@H]6CC6(C)C)C[C@H]5C)nc4)cc3OC(F)(F)F)cc2)c[nH]1)C(C)C` [Example 27-4], the “Genotype 1a” value is reported as “D (D represents pEC50>10 (EC50<0.1 nM))”.

Regarding `COC(=O)N[C@H](C(=O)N1C[C@@H](C)C[C@H]1c1nc(-c2ccc(-c3ccc(C(=O)Nc4ccc(N5C[C@H](C)N(C(=O)C(C)(C)NC(=O)C6CC6)C[C@H]5C)nc4)cc3OC(F)(F)F)cc2)c[nH]1)C(C)C` [Example 4-39], the “Genotype 1a” value was “C (C represents pEC50 between and 9 and about 10, (EC50 between 1 nM and 0.1 nM))”.

Take `COC(=O)N[C@H](C(=O)N1C[C@@H](C)C[C@H]1c1nc(-c2ccc(-c3cc(Cl)c(NC(=O)c4ccc(N5CCN(C(=O)C6CC67CC7)C[C@H]5C)nc4)cc3OC(F)(F)F)cc2)c[nH]1)C(C)C` (stereo partly drawn) [Example 1-87]: the “Genotype 1a” value was “D (D represents pEC50>10 (EC50<0.1 nM))”.

For the compound `COC(=O)N[C@H](C(=O)N1C[C@@H](C)C[C@H]1c1nc(-c2ccc(-c3cc(Cl)c(NC(=O)c4ccc(N5CCN(C(=O)C6(C)CC6)C[C@H]5C)nc4)cc3OC(F)(F)F)cc2)c[nH]1)C(C)C` [Example 1-80], the “Genotype 1a” value was “C (C represents pEC50 between and 9 and about 10, (EC50 between 1 nM and 0.1 nM))”.

Regarding `COC(=O)N[C@H](C(=O)N1C[C@@H](C)C[C@H]1c1nc(-c2ccc(-c3ccc(C(=O)Nc4ccc(N5CCN(C(=O)C6CC6(Cl)Cl)C[C@H]5C)nc4)cc3OC(F)(F)F)cc2)c[nH]1)C(C)C` (stereo partly drawn) [Example 4-32], the “Genotype 1a” value was “C (C represents pEC50 between and 9 and about 10, (EC50 between 1 nM and 0.1 nM))”.

The experiment is the same for the next values; noted with them: Hepatitis C virus, read-out: Genotype 1a, HCV genotype 1a replicon.
With `COCCO[C@H](C)[C@H](NC(=O)OC)C(=O)N1C[C@@H](C)C[C@H]1c1nc(-c2ccc(-c3cc(Cl)c(NC(=O)c4ccc(N5CCN(C(=O)C(C)(C)C)C[C@H]5C)nc4)cc3OC(F)(F)F)cc2)c[nH]1` [Example 13-9], the EC50 is below 0.1 nM.

For `COC(=O)N[C@H](C(=O)N1C[C@@H](C)C[C@H]1c1nc(-c2ccc(-c3cc(Cl)c(NC(=O)c4ccc(N5CCN(C(=O)NN6CCS(=O)(=O)CC6)C[C@H]5C)nc4)cc3OC(F)(F)F)cc2)c[nH]1)C(C)C` [Example 12-19], the EC50 was below 0.1 nM.

As to `COCCO[C@H]1C[C@@H](c2nc(-c3ccc(-c4cc(Cl)c(NC(=O)c5ccc(N6CCN(C(=O)C(C)(C)C)C[C@H]6C)nc5)cc4OC(F)(F)F)cc3)c[nH]2)N(C(=O)[C@@H](NC(=O)OC)C(C)C)C1` [Example 15-1], the EC50 lay in the range of 0.1 to 1 nM.

`COC(=O)N[C@H](C(=O)N1C[C@@H](C)C[C@H]1c1nc(-c2ccc(-c3cc(Cl)c(NC(=O)c4ccc(N5CCN(C(=O)C(C)(C)C)C[C@H]5C)nc4)cc3OC(F)(F)F)cc2)c[nH]1)C1CCCC1` [Example 13-41]: the EC50 was below 0.1 nM.

With `COC(=O)NC(C(=O)N1C[C@@H](C)C[C@H]1c1nc(-c2ccc(-c3cc(Cl)c(NC(=O)c4ccc(N5CCN(C(=O)C(C)(C)C)C[C@H]5C)nc4)cc3OC(F)(F)F)cc2)c[nH]1)C1COC1` (stereo partly drawn) [Example 13-44], the EC50 lay in the range of 0.1 to 1 nM.

As for `COC(=O)N[C@H](C(=O)N1C[C@@H](C)C[C@H]1c1nc(-c2ccc(-c3cc(Cl)c(NC(=O)c4ccc(N5CCN(C(=O)C(C)(C)C)C[C@H]5C)nc4)cc3OC(F)(F)F)cc2)c[nH]1)[C@H](C)O` [Example 13-6], the EC50 was below 0.1 nM.

(Values after US9212168B2 (priority 2011, dated 2015).)
